From patent US7374870B2, “Systems and methods for removing viral agents from blood” (Fenwal, Inc., priority 1996, dated 2008)

Experiments:
[1] = tested on: viruses; assay: Viral inactivation by the photoreduction byproduct; details: byproduct formed by exposing methylene blue to visible ambient light
[2] = tested on: encephalomyocarditis virus (EMC); details: cited from earlier work

Row | SMILES | effectiveness in inactivating viruses [1] | virucidal action on non-enveloped EMC [2]
1 | CN(C)c1ccc2c(c1)Sc1cc(N(C)C)ccc1N2 [leucomethylene blue] | not effective in inactivating viruses | –
2 | CN(C)c1ccc2nc3ccc(=[N+](C)C)cc-3sc2c1 [methylene blue] | – | demonstrated a resistance to the virucidal action
